Measurements reported in patent publication US20110245081A1, “HERBICIDE COMPOSITION FOR LAWN” (priority 2006, published 2011).
Where two headings read alike, the source gives them in different places.

Experiments:
Assay type in all cases: in vivo
[1] = test system: Chenopodium ficifolium; assay: Test Example 2: foliage and soil treatment by mixing, herbicidal effect; conditions: 1080 h
[2] = test system: Erigeron canadensis; assay: Test Example 1: soil treatment by mixing, herbicidal effect; conditions: 1080 h
[3] = test system: Poa annua L.; assay: as above; conditions: 1080 h
Protocol: (§1) On a field of Zoysia japonica sectioned to 100 cm×100 cm, seeds of Digitaria ciliayis (Retz.) Koeler, Poa annua L., Polygonum hydropiper L., Euphorbia supine Rafin, Oxalis comiculata L., Cyperus microiria were sown and covered with 0.5 cm soil. Seven days after weeds sowing, treatment was conducted with watering amount of 200 cc/m^2. The prescribed amount of test compound was sprayed with a small spray in the form of the formulation prepared according to the above-mentioned examples or a wettable powder of a single compound diluted with water.
(§2) The herbicidal effect and the degree of phytotoxicity to the lawn were studied 45 days after the agent treatment.
(§3) Herbicidal effect: 100%: complete death 0%: no effect Phytotoxicity: 100%: complete death 0%: no phytotoxicity
(§4) In the tables, ai means the effective component.

[4] = test system: Oxalis corniculata L.; assay: as above; conditions: 1080 h
Protocol: as §1, §2, §3, §4

[5] = test system: Digitaria ciliayis (Retz.) Koeler; assay: as above; conditions: 1080 h
Protocol: as §1, §2, §3, §4

[6] = test system: Erigeron canadensis; assay: Test Example 2: foliage and soil treatment by mixing, herbicidal effect; conditions: 1080 h
[7] = test system: Polygonum blumei; assay: Test Example 1: soil treatment by mixing, herbicidal effect; conditions: 1080 h
[8] = test system: Chenopodium ficifolium; assay: as above; conditions: 1080 h
[9] = test system: Poa annua L.; assay: Test Example 2: foliage and soil treatment by mixing, herbicidal effect; conditions: 1080 h
Protocol: as §1, §3
(§5) A test section of Zoysia matrella had been prepared in the same method as in the Test Example 1 and on the 28th day after weeds sowing a treatment was conducted with watering amount of 200 cc/m2. The prescribed amount of test compound was sprayed with a small spray in the form of the formulation prepared according to the aforementioned examples or a wettable powder of a single compound diluted with water.
(§6) The herbicidal effect and the degree of phytotoxicity to the lawn were studied 45 days after the agent treatment in the same manner as Test Example 1.

[10] = test system: Polygonum blumei; assay: as above; conditions: 1080 h
Protocol: as §1, §3, §5, §6

[11] = test system: Oxalis corniculata L.; assay: as above; conditions: 1080 h
Protocol: as §1, §3, §5, §6

[12] = test system: Digitaria ciliayis (Retz.) Koeler; assay: as above; conditions: 1080 h
Protocol: as §1, §3, §5, §6

[13] = test system: Zoysia matrella; conditions: foliage and soil treatment, 45 days
[14] = test system: Zoysia matrella; conditions: soil treatment, 45 days
[15] = foliage and soil treatment, 45 days, Indanofan 1000 g ai/ha
[16] = soil treatment, 45 days, Indanofan 1000 g ai/ha
[17] = foliage and soil treatment, 45 days, Asulam 1500 g ai/ha
[18] = soil treatment, 45 days, Asulam 1500 g ai/ha
[19] = read-out: Herbicidal effect Chenopodium ficifolium
[20] = read-out: Herbicidal effect Poa annua L.
[21] = read-out: Herbicidal effect Oxalis corniculata L.
[22] = read-out: Herbicidal effect Digitaria ciliayis (Retz.) Koeler
[23] = read-out: Herbicidal effect Polygonum blumei
[24] = foliage and soil treatment, 45 days, Ethoxysulfuron 125 g ai/ha
[25] = soil treatment, 45 days, Ethoxysulfuron 125 g ai/ha
[26] = foliage and soil treatment, 45 days, Fentrazamide 1500 g ai/ha
[27] = soil treatment, 45 days, Fentrazamide 1500 g ai/ha
[28] = foliage and soil treatment, 45 days, Oxaziclomefone 150 g ai/ha
[29] = soil treatment, 45 days, Oxaziclomefone 150 g ai/ha

Question: CCC1(CC2(c3cccc(Cl)c3)CO2)C(=O)c2ccccc2C1=O (racemic) [Indanofan, (RS)-2-[2-(3-chlorophenyl)-2,3-epoxypropyl]-2-ethylindan-1,3-dione] was tested. Which pest or weed control at 1000 g/ha [1, 15] did it give?
Answer: 20%

Question: What about the pest or weed control at 1000 g/ha [2, 16] of the same compound?
Answer: 75%

Question: What about the pest or weed control at 1000 g/ha [3, 16] of the same compound?
Answer: 0%

Question: And the pest or weed control at 1000 g/ha [4, 16]?
Answer: 50%

Question: And the pest or weed control at 1000 g/ha [5, 16]?
Answer: 0%

Question: What about the pest or weed control at 1000 g/ha [6, 15] of the same compound?
Answer: 0%

Question: What about the pest or weed control at 1000 g/ha [7, 16] of the same compound?
Answer: 60%

Question: What about the pest or weed control at 1000 g/ha [8, 16] of the same compound?
Answer: 70%

Question: What about the pest or weed control at 1000 g/ha [9, 15] of the same compound?
Answer: 30%

Question: What about the pest or weed control at 1000 g/ha [10, 15] of the same compound?
Answer: 0%

Question: And the pest or weed control at 1000 g/ha [11, 15]?
Answer: 0%

Question: And the pest or weed control at 1000 g/ha [12, 15]?
Answer: 30%

Question: How did the pest or weed control at 1500 g/ha [1, 17] turn out when COC(=O)NS(=O)(=O)c1ccc(N)cc1 [Asulam, methyl sulfanyl carbamate] was run?
Answer: 60%

Question: What about the pest or weed control at 1500 g/ha [2, 18] of the same compound?
Answer: 0%

Question: And the pest or weed control at 1500 g/ha [3, 18]?
Answer: 20%

Question: What about the pest or weed control at 1500 g/ha [4, 18] of the same compound?
Answer: 0%

Question: And the pest or weed control at 1500 g/ha [5, 18]?
Answer: 20%

Question: And the pest or weed control at 1500 g/ha [6, 17]?
Answer: 60%

Question: And the pest or weed control at 1500 g/ha [7, 18]?
Answer: 0%

Question: What about the pest or weed control at 1500 g/ha [8, 18] of the same compound?
Answer: 0%

Question: And the pest or weed control at 1500 g/ha [9, 17]?
Answer: 30%

Question: And the pest or weed control at 1500 g/ha [10, 17]?
Answer: 70%

Question: And the pest or weed control at 1500 g/ha [11, 17]?
Answer: 60%

Question: What about the pest or weed control at 1500 g/ha [12, 17] of the same compound?
Answer: 40%

Question: What does the source list for CCN(CC)C(=O)n1cnc(S(=O)(=O)c2c(C)cc(C)cc2C)n1 [Cafenstrole, N,N-diethyl-3-meticylsulfonyl-1H-1,2,4-triazol-1-carboxamide]?
Answer: pest or weed control at 2000 g/ha [1, 19]: 20%; Zoysia matrella phytotoxicity ([13]; Cafenstrole 2000 g ai/ha): 0%; pest or weed control at 2000 g/ha ([2]; soil, read-out: Herbicidal effect Erigeron canadensis): 75%; Zoysia matrella phytotoxicity ([14]; Cafenstrole 2000 g ai/ha): 0%; pest or weed control at 2000 g/ha [3, 20]: 0%; pest or weed control at 2000 g/ha [4, 21]: 50%; pest or weed control at 2000 g/ha [5, 22]: 0%; pest or weed control at 2000 g/ha ([6]; read-out: Herbicidal effect Erigeron canadensis): 0%; pest or weed control at 2000 g/ha [7, 23]: 60%; pest or weed control at 2000 g/ha [8, 19]: 70%; pest or weed control at 2000 g/ha [9, 20]: 30%; pest or weed control at 2000 g/ha [10, 23]: 0%; pest or weed control at 2000 g/ha [11, 21]: 0%; pest or weed control at 2000 g/ha [12, 22]: 40%

Question: CCOc1ccccc1OS(=O)(=O)NC(=O)Nc1nc(OC)cc(OC)n1 [Ethoxysulfuron, 1-(4,6-dimethoxypyrimidin-2-yl)-3-(2-ethoxyphenoxysulfonyl)urea] was tested. Which pest or weed control at 125 g/ha [1, 24] did it give?
Answer: 50%

Question: What about the pest or weed control at 125 g/ha [2, 25] of the same compound?
Answer: 75%

Question: What about the pest or weed control at 125 g/ha [3, 25] of the same compound?
Answer: 0%

Question: And the pest or weed control at 125 g/ha [4, 25]?
Answer: 50%

Question: What about the pest or weed control at 125 g/ha [5, 25] of the same compound?
Answer: 0%

Question: And the pest or weed control at 125 g/ha [6, 24]?
Answer: 60%

Question: And the pest or weed control at 125 g/ha [7, 25]?
Answer: 60%

Question: What about the pest or weed control at 125 g/ha [8, 25] of the same compound?
Answer: 70%

Question: And the pest or weed control at 125 g/ha [9, 24]?
Answer: 0%

Question: And the pest or weed control at 125 g/ha [10, 24]?
Answer: 40%

Question: What about the pest or weed control at 125 g/ha [11, 24] of the same compound?
Answer: 30%

Question: What about the pest or weed control at 125 g/ha [12, 24] of the same compound?
Answer: 0%

Question: What does the source list for CCN(C(=O)n1nnn(-c2ccccc2Cl)c1=O)C1CCCCC1 [Fentrazamide, 4-(2-chlorophenyl)-N-cyclohexyl-N-ethyl-4,5-dihydro-5-oxo-1H-terazol-1-carboxamide]?
Answer: pest or weed control at 1500 g/ha [1, 26]: 0%; Zoysia matrella phytotoxicity ([13]; Fentrazamide 1500 g ai/ha): 0%; pest or weed control at 1500 g/ha [2, 27]: 0%; Zoysia matrella phytotoxicity ([14]; Fentrazamide 1500 g ai/ha): 0%; pest or weed control at 1500 g/ha [3, 27]: 80%; pest or weed control at 1500 g/ha [4, 27]: 0%; pest or weed control at 1500 g/ha [5, 27]: 90%; pest or weed control at 1500 g/ha [6, 26]: 0%; pest or weed control at 1500 g/ha [7, 27]: 0%; pest or weed control at 1500 g/ha [8, 27]: 20%; pest or weed control at 1500 g/ha [9, 26]: 30%; pest or weed control at 1500 g/ha [10, 26]: 0%; pest or weed control at 1500 g/ha [11, 26]: 0%; pest or weed control at 1500 g/ha [12, 26]: 40%

Question: How did the pest or weed control at 150 g/ha [1, 28] turn out when CC1=C(c2ccccc2)C(=O)N(C(C)(C)c2cc(Cl)cc(Cl)c2)CO1 [Oxaziclomefone, 3-[1-(3,5-dichlorophenyl)-1-methylethyl]-3,4-dihydro-6-methyl-5-phenyl-2H-1,3-oxazin-4-one] was run?
Answer: 0%

Question: What about the pest or weed control at 150 g/ha [2, 29] of the same compound?
Answer: 0%

Question: And the pest or weed control at 150 g/ha [3, 29]?
Answer: 90%

Question: What about the pest or weed control at 150 g/ha [4, 29] of the same compound?
Answer: 0%

Question: What about the pest or weed control at 150 g/ha [5, 29] of the same compound?
Answer: 90%

Question: And the pest or weed control at 150 g/ha [6, 28]?
Answer: 0%

Question: What about the pest or weed control at 150 g/ha [7, 29] of the same compound?
Answer: 0%

Question: And the pest or weed control at 150 g/ha [8, 29]?
Answer: 0%

Question: And the pest or weed control at 150 g/ha [9, 28]?
Answer: 30%

Question: And the pest or weed control at 150 g/ha [10, 28]?
Answer: 0%

Question: And the pest or weed control at 150 g/ha [11, 28]?
Answer: 0%

Question: And the pest or weed control at 150 g/ha [12, 28]?
Answer: 30%
